Values quoted from earlier work in patent US8003118B2 (priority 2005, dated 2011).

CO[C@H]1/C=C/O[C@@]2(C)Oc3c(C)c(O)c4c(O)c(c5c(nc6cc(C)ccn65)c4c3C2=O)NC(=O)/C(C)=C\C=C\[C@H](C)[C@H](O)[C@@H](C)[C@@H](O)[C@@H](C)[C@H](OC(C)=O)[C@@H]1C [rifaximin, (2S,16Z,18E,20S,21S,22R,23R,24R,25S,26S,27S,28E)-5,6,21,23,25-pentahydroxy-27-methoxy-2,4,11,16,20,22,24,26-octamethyl-2,7-(epoxypentadeca-[1,11,13]trienimino)benzofuro[4,5-e]pyrido[1,2-α]-benzimidazole-1,15(2H)-dione,25-acetate]
solubility in water: practically insoluble
